Test results as given in publication PMC8602401 (Scientific Reports, 2021).
*1 amine or outer side, *2 acyl side, *3 side chain or, on linkers, in order; H or OH if unused. Where a SMILES comes first, the peptide text is derived from it. Side-chain parts run from the residue outwards. [ ]: non-standard residue; d: D form. The star is where a group is joined. γGlu = O=C(O)[C@H](CCC(=O)[*:2])N[*:1]; αMeF = C[C@](N)(Cc1ccccc1)C(=O)O; αMeK = C[C@](N)(CCCCN)C(=O)O; Lauroyl = CCCCCCCCCCCC(=O)*; αMeS = C[C@](N)(CO)C(=O)O; AEEA = NCCOCCOCC(=O)O; Aib = CC(C)(N)C(=O)O

Tests used:
[1] = molecular target: T1, GLP-1R (endogenously expressed, EndoC-βH1 cells) (Homo sapiens, UniProt P43220); test: cAMP accumulation assay in EndoC-βH1 human pancreatic β-cells; format: cell-based; details: geometric mean (SEM)
T1 construct: EndoC-βH1 human pancreatic β-cell line, which endogenously expresses GLP-1R; endogenous in cells; host or cells: EndoC-βH1 human pancreatic β-cells
Protocol: All reagents for cAMP assays were obtained from Sigma-Aldrich unless otherwise specified.
Cells were suspended in assay buffer and combined with serially diluted peptides at room temperature for 30 min. cAMP levels were measured using a cAMP dynamic 2 HTRF kit (Cisbio, Codolet, France), following the manufacturer’s two-step protocol, on an EnVision plate reader (PerkinElmer, Waltham, MA, USA). […] The transformed data were analyzed by four-parameter logistic fit to determine EC50 values using GraphPad Prism 6 (GraphPad Software, San Diego, CA, USA).

[2] = system: C57Bl/6 J mice; test: Acute food intake in C57Bl/6J mice; format: in vivo, mouse; details: versus placebo
Protocol: Male C57Bl/6 J mice 8–10 weeks of age (Jackson Laboratories, Bar Harbor, ME, USA) were single-housed in the BioDAQ (Research Diets, New Brunswick, NJ, USA) food monitoring system with ad libitum access to standard chow and water. Mice were randomized into groups of 6–9 per group on baseline 24-h food intake. On the first study day, mice were fasted for 6 h and then received a single subcutaneous dose of test peptide or placebo (50 mM Tris–HCl, 150 mM mannitol, 0.02% polysorbate 80; pH 8.0). Food intake was monitored over the next 48 h.

[3] = system: dog plasma protein; test: EScalate equilibrium shift assay, dog plasma; format: in vitro ADME; details: EScalate equilibrium shift assay
[4] = EScalate equilibrium shift assay, dog plasma; format: in vitro ADME; details: dog; EScalate equilibrium shift, five dilutions of plasma in PBS, 1 h at room temperature, HPLC-QTOF MS; read-out: Fraction unbound peptide (%), dog
[5] = system: HFHF fed dogs; test: Dog model of obesity and insulin resistance (HFHF fed dogs), oral tablets; format: in vivo; details: for plasma glucose excursions after oral glucose challenge: 10–40 min after glucose, P < 0.05, n = 7–11 per group
Protocol: For the single-dose study, dogs were randomized on baseline glucose levels to receive MEDI7219 1 mg or 10 mg or placebo tablets in the morning following an overnight fast (7–11 dogs per group). Ninety minutes after tablet administration, dogs received an oral glucose bolus (200 mg/mL at a 5 mL/kg volume calculated on body weight prior to HFHF feeding), and blood glucose (blood collected via peripheral vein) was measured with an AlphaTRAK glucometer system (Zoetis, Parsippany, NJ, USA) at –90, 0, 10, 20, 30, 40, 50, 60, 75, 90, 120, 180 and 240 min after glucose administration. Approximately 12 weeks later, dogs entered the multiple-dose study and received either MEDI7219 10 mg (n = 12) or placebo tablets (n = 6) once daily for 14 days. Dogs received two cups of HFHF canine diet per day, with feeding 3 h postdose during the 14-day study. Dogs had access to water ad libitum throughout the study. Food intake and body weight were monitored daily. On day 14, after overnight fasting, dogs received their final dose followed by an oral glucose and acetaminophen bolus 90 min after administration. Blood glucose was measured as described previously, and plasma acetaminophen levels were measured by LC/MS method at the same time points.

[6] = Bioavailability after intraduodenal administration with permeation enhancers in rats; format: in vivo, rat
Protocol: Male Sprague Dawley rats (Charles River, Shrewsbury, MA, USA) weighing 250–275 g were housed with ad libitum access to standard chow and water. Test peptides were administered via either an intravenous or a duodenal catheter (4 rats per group) after overnight fasting, and food was returned following 4 h blood collection. Blood was collected via a jugular vein catheter at − 5, 15 and 30 min and 1, 2, 4, 8 and 24 h after intravenous dosing, or for intraduodenal groups at 15 min predose and 0.5, 1, 2, 4, 8, 24 and 48 h postdose. Blood was collected in K2EDTA tubes and kept on wet ice prior to 10 min centrifugation (3000 × g) at 5 °C ± 3 °C. Plasma samples were stored at − 70 °C until analysis.
Fifty or seventy μL aliquots of K2EDTA plasma samples were precipitated with 75% acetonitrile (Sigma-Aldrich) in water (J.T. Baker, Phillipsburg, NJ, USA) (v/v) and centrifuged at 2000 × g. The supernatant was dried under nitrogen at 60 °C, then cooled. Samples were reconstituted in 20% acetonitrile in water (v/v). […] Gradient separation was performed with water and 0.2% formic acid (Thermo Fisher Scientific, Waltham, MA, USA) as mobile phase A, and acetonitrile with 0.2% formic acid as mobile phase B. The method was qualified for the quantification range of 1–1000 ng/mL with accuracy and precision of ± 20%, except for at the lower limit of quantification when the accuracy and precision were ± 25%. Plasma concentrations were subject to noncompartmental analysis consistent with the route of administration using Phoenix WinNonlin (version 7.0, Certara, Princeton, NJ, USA).

[7] = system: monkey plasma protein; test: EScalate equilibrium shift assay, monkey plasma; format: in vitro ADME; details: EScalate equilibrium shift assay
Protocol: [The procedure below names another species; the source lists this species under the same test.] (§1) Binding of peptides to human plasma proteins was determined by the EScalate equilibrium shift assay (Sovicell, Leipzig, Germany), using five dilutions of plasma in phosphate buffered saline and an assumed binding protein concentration of 600 µM. Samples were incubated for 1 h at room temperature then centrifuged to remove the HSA-coated beads. Supernatant samples were analyzed using HPLC (3 µm Phenomenex Aeris Widepore XB-C18 stationary phase) coupled to an electrospray ionization quadrupole time-of-flight mass spectrometer in high resolution accurate mass mode (Agilent, Santa Clara, CA, USA). Unbound fractions were calculated from the concentration-dependent shift in binding equilibrium according to fu=1/1+P/KDPlasma , where P is the concentration of the binding protein in plasma and KDPlasma is the dissociation constant of the compound from plasma proteins in solution.

[8] = EScalate equilibrium shift assay, monkey plasma; format: in vitro ADME; details: monkey; EScalate equilibrium shift, five dilutions of plasma in PBS, 1 h at room temperature, HPLC-QTOF MS; read-out: Fraction unbound peptide (%), monkey
Protocol: [The procedure below names another species; the source lists this species under the same test.] as §1

[9] = system: rat plasma protein; test: EScalate equilibrium shift assay, rat plasma; format: in vitro ADME; details: EScalate equilibrium shift assay
[10] = EScalate equilibrium shift assay, rat plasma; format: in vitro ADME; details: rat; EScalate equilibrium shift, five dilutions of plasma in PBS, 1 h at room temperature, HPLC-QTOF MS; read-out: Fraction unbound peptide (%), rat
[11] = system: human plasma protein; test: EScalate equilibrium shift assay, human plasma; format: in vitro ADME
Protocol: as §1

T1 sequence (P43220 24-463): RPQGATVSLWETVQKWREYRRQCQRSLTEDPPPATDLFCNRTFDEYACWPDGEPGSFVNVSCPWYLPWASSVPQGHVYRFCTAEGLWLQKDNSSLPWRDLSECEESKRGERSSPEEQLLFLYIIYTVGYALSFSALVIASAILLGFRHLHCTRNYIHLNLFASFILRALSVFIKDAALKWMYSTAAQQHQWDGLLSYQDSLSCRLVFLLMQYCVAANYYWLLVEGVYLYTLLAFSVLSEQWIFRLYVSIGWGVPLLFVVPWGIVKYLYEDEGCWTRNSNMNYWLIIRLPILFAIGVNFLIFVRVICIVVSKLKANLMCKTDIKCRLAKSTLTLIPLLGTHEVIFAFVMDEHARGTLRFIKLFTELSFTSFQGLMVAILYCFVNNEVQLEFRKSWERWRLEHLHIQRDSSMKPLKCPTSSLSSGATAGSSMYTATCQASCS

EC50 ([1]; 0.1% BSA, 30 min at room temperature, HTRF cAMP, n ≥ 3 independent experiments): 1.36 nM
Human EndoC-βH1 cAMP 0.1% BSA Effect at max. concentration ([1]; % activation, 80 nM native GLP-1 defines maximum effect): 97.5 (7.1) %
peptide bound to plasma proteins, dog [3]: over 97%
fold higher mean bioavailability than semaglutide ([6]; intraduodenal with permeation enhancers): 13 fold
mean bioavailability (%F) ([6]; single intraduodenal administration with permeation enhancers (NaCDC and PG), n = 4 per group): 1.01%
peptide bound to plasma proteins, monkey [7]: over 97%
peptide bound to plasma proteins, rat [9]: over 97%
peptide bound to plasma proteins, human ([11]; EScalate equilibrium shift assay): over 97%
Structure (SMILES): CCCCCCCCCCCC(=O)N[C@@H](CCC(=O)NCCOCCOCC(=O)NCCOCCOCC(=O)NCCCC[C@H](NC(=O)[C@H](C)NC(=O)[C@@H](NC(=O)[C@](C)(Cc1ccccc1)NC(=O)[C@H](CCC(=O)O)NC(=O)[C@](C)(CCCCN)NC(=O)[C@H](C)NC(=O)[C@H](C)NC(=O)[C@H](CCC(=O)O)NC(=O)CNC(=O)[C@H](CCC(=O)O)NC(=O)[C@H](CC(C)C)NC(=O)[C@H](CCCCNC(=O)COCCOCCNC(=O)COCCOCCNC(=O)CC[C@H](NC(=O)CCCCCCCCCCC)C(=O)O)NC(=O)[C@H](CO)NC(=O)[C@](C)(CO)NC(=O)[C@@H](NC(=O)[C@H](CC(=O)O)NC(=O)[C@H](CO)NC(=O)[C@@H](NC(=O)[C@](C)(Cc1ccccc1)NC(=O)[C@H](CO)NC(=O)CNC(=O)[C@H](CCC(=O)O)NC(=O)C(C)(C)NC(=O)[C@@H](N)Cc1c[nH]cn1)[C@@H](C)O)C(C)C)[C@@H](C)CC)C(=O)N[C@H](C(=O)N[C@H](C(=O)N[C@@H](CCC(=O)O)C(=O)NCC(=O)NCC(N)=O)C(C)C)C(C)C)C(=O)O [MEDI7219] (H-H[Aib]EGS[αMeF]TSDV[αMeS]SK([AEEA-AEEA-γGlu-Lauroyl])LEGEAA[αMeK]E[αMeF]IAK([AEEA-AEEA-γGlu-Lauroyl])VVEGG-NH2)
24-hour food intake, decrease (↓) in Fig. 3a ([2]; subcutaneous 0.3 nmol/kg): 12.6%
24-hour food intake, decrease (↓) in Fig. 3a ([2]; subcutaneous 1 nmol/kg): 18.0%
24-hour food intake, decrease (↓) in Fig. 3a ([2]; subcutaneous 3 nmol/kg): 39.4%
fraction unbound at 1 h [4]: 0.0176
body weight change over 14 days ([5]; once-daily 10 mg oral tablets, 14 days, placebo + 0.71%, P < 0.05, n = 12): –4.86%
glucose excursions in oral glucose tolerance test, day 14 ([5]; once-daily 10 mg oral tablets, fasted, postdose day 14, versus placebo, P < 0.01): significant improvements in glucose excursions
peak plasma acetaminophen concentration (gastric emptying), day 14 ([5]; once-daily 10 mg oral tablets, oral acetaminophen with glucose bolus, versus placebo): significantly reduced at 20–40 min (P < 0.05) and delayed
cumulative food intake over 14 days ([5]; once-daily 10 mg oral tablets, versus placebo, P < 0.05): significantly decreased cumulative food intake
plasma glucose excursions after oral glucose challenge ([5]; single dose 1 mg oral tablet, versus placebo): statistically significantly improved
plasma glucose excursions after oral glucose challenge ([5]; single dose 10 mg oral tablet, versus placebo): statistically significantly improved
fraction unbound at 1 h [8]: 0.025
fraction unbound at 1 h [10]: 0.006
Fraction unbound peptide (%), human ([11]; EScalate equilibrium shift, HSA-coated beads, five dilutions of plasma in PBS, 1 h at room temperature, HPLC-QTOF MS): 1.75%
